One experiment has as its target T1, human mGluR4 (Homo sapiens, UniProt Q14833).
T1 construct: expressed in transfected cells; host or cells: HEK-293
Description: mGluR4 Assay on HEK-Expressing Human mGluR4 (FLIPR Ca2+ fluorescence, PAM activity). The following applies: Table I; human mGluR4 HEK-293 cells, Fluo4-AM/FLIPR, stimulated with glutamate EC25. The format is cell-based. The procedure:
mGluR4 Assay on HEK-Expressing Human mGluR4
Since, as explained above, the compounds of the present invention are positive allosteric modulators of mGluR4 receptors, which activity was assayed by detecting changes in intracellular Ca^+2 ion concentration using a Ca^+2-sensitive fluorescent dye (Fluo4-(AM)) and a fluorometric imaging plate reader (FLIPR, Molecular Devices, Sunnyvale, Calif.) in accordance with the manufacturers instructions.
Accordingly, 24 hours prior to carrying out an analysis, human mGluR4 HEK-293 cells were plated out in black-walled, clear-bottomed, poly-L-ornithine-coated 384-well plates at a density of 25,000 cells/well in a glutamine/glutamate-free DMEM medium containing fetal bovine serum (10%), penicillin (100 units/mL) and streptomycin (100 micrograms/mL) at 37° C. under 5% CO2. On the day of the assay, the medium was aspirated and the cells were loaded with a 3 micro-molar solution of Fluo4-AM (LuBioScience, Lucerne, Switzerland) in 0.03% pluronic acid. After maintaining the plate 1 hour at 37° C. under 5% CO2 the non-incorporated dye was removed by washing the cell plate with the assay buffer and the cells were left in the dark at room temperature for six hours before evaluating. All assays were performed in a pH 7.4 buffered-solution containing 20 mM HEPES, 142 mM NaCl, 6 mM KCl, 1 mM MgSO4, 1 mM CaCl2, 0.125 mM sulfapyrazone, and 1% glucose.
Basal fluorescence was recorded over 10 seconds, then aliquots of various concentrations of a compound of the invention were added to the cells. Changes in fluorescence level were first monitored for 180 seconds in order to detect any agonist activity attributable to the compound being assayed. Then the cells were stimulated for an additional 110 seconds by that concentration of glutamate yielding 25% of the maximal response to glutamate (EC25). Concentration-response curves of compounds of the invention were generated using Prism GraphPad software (Graph Pad Inc., San Diego, USA). Curves generated were fitted to a four-parameter logistic equation allowing the determination of EC50 values:
Y=Bottom+(Top−Bottom)/(1+10^logEC^50-^X)*Hill Slope.
For each sample assayed, at least three independent measurements were performed. EC50 values thus determined are reported for each of the compounds of the invention in the respective Tables 1 to 3 herein above.
T1 sequence (Q14833 33-912): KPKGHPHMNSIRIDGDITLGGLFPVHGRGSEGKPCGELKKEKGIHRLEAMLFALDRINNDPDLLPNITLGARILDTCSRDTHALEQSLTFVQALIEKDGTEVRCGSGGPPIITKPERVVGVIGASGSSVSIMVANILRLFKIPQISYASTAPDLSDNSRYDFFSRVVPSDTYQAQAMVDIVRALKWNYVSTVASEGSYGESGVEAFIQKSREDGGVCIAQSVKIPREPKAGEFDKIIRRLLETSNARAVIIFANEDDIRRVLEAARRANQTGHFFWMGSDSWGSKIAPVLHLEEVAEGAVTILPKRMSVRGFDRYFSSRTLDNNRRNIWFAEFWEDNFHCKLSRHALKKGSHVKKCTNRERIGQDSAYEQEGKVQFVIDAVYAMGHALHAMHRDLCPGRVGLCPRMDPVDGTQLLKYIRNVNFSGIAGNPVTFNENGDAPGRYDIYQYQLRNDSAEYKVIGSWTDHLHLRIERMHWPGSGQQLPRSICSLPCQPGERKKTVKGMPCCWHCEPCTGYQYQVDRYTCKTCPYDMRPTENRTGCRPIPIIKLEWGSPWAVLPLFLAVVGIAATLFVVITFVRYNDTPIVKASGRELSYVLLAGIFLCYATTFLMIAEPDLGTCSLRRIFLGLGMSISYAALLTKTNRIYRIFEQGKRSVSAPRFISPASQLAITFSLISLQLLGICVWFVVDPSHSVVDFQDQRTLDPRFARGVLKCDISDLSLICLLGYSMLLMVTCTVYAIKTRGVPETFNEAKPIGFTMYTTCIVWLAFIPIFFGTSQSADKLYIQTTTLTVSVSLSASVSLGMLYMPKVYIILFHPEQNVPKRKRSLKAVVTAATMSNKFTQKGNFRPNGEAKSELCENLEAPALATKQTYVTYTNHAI
What is called EC50 is the concentration giving half of the maximal effect. Low values mean higher potency in that assay, high ones lower potency in that assay. The molecule `Cc1ccnc(Nc2nc3c(s2)C(C)(C)Cc2[nH]ncc2-3)n1` [Cmpd 1, 4,4-dimethyl-N-(4-methylpyrimidin-2-yl)-5,6-dihydro-4H-[1,3]thiazolo[4,5-e]indazol-2-amine] registered an EC50 of 326 nM.

The molecule `Cc1ccnc(Nc2nc3c(ccc4[nH]ncc43)s2)n1` [Cmpd 2, N-(4-methylpyrimidin-2-yl)-6H-[1,3]thiazolo[4,5-e]indazol-2-amine] registered an EC50 of 28 nM.

`c1cnc(Nc2nc3c(ccc4[nH]ncc43)s2)nc1` [Cmpd 3, N-(pyrimidin-2-yl)-6H-[1,3]thiazolo[4,5-e]indazol-2-amine]: the EC50 worked out at 9 nM.

The molecule `CC1(C)Cc2[nH]ncc2-c2nc(Nc3ncc(F)cn3)sc21` [Cmpd 4, N-(5-fluoropyrimidin-2-yl)-4,4-dimethyl-5,6-dihydro-4H-[1,3]thiazolo[4,5-e]indazol-2-amine] came in with a concentration giving a half-maximal response (EC50) of 753 nM.

In turn, `Cc1nc(Nc2nc3c(s2)C(C)(C)Cc2[nH]ncc2-3)ncc1F` [Cmpd 5, N-(5-fluoro-4-methylpyrimidin-2-yl)-4,4-dimethyl-5,6-dihydro-4H-[1,3]thiazolo[4,5-e]indazol-2-amine] had an EC50 of 645 nM.

For the molecule `Brc1cc2sc(Nc3ncccn3)nc2c2cn[nH]c12` [Cmpd 6, 5-bromo-N-(pyrimidin-2-yl)-6H-[1,3]thiazolo[4,5-e]indazol-2-amine], the concentration giving a half-maximal response (EC50) came out at 1 nM.

The molecule `Clc1cc2sc(Nc3ncccn3)nc2c2cn[nH]c12` [Cmpd 7, 5-chloro-N-(pyrimidin-2-yl)-6H-[1,3]thiazolo[4,5-e]indazol-2-amine] registered a concentration for a half-maximal effect (EC50) of 2 nM.

For `Cc1ccnc(Nc2nc3c(cc(C)c4[nH]ncc43)s2)n1` [Cmpd 8, 5-methyl-N-(4-methylpyrimidin-2-yl)-6H-[1,3]thiazolo[4,5-e]indazol-2-amine], the 50% effective concentration (EC50) was 129 nM.

Take `CC1Cc2sc(Nc3ncccn3)nc2-c2cn[nH]c21` (stereo not drawn) [Cmpd 9, 5-methyl-N-(pyrimidin-2-yl)-5,6-dihydro-4H-[1,3]thiazolo[4,5-e]indazol-2-amine]: the EC50 came to 2 nM.

Molecule `Cc1ccnc(Nc2nc3c(s2)CC(C)c2[nH]ncc2-3)n1` (stereo not drawn) [Cmpd 10, 5-methyl-N-(4-methylpyrimidin-2-yl)-5,6-dihydro-4H-[1,3]thiazolo[4,5-e]indazol-2-amine] came in with an EC50 of 36 nM.

`Cc1ccnc(Nc2nc3c(s2)C2(CC2)Cc2[nH]ncc2-3)n1` [Cmpd 11, N-(4-methylpyrimidin-2-yl)-5′,6′-dihydrospiro[cyclopropane-1,4′-[1,3]thiazolo[4,5-e]indazol]-2′-amine] showed an EC50 of 545 nM.

In turn, `c1cnc(Nc2nc3c(s2)C2(CC2)Cc2[nH]ncc2-3)nc1` [Cmpd 12, N-(pyrimidin-2-yl)-5′-6′-dihydrospiro[cyclopropane-1,4′-[1,3]thiazolo[4,5-e]indazol]-2′-amine] registered an EC50 of 35 nM.

The molecule `Fc1cnc(Nc2nc3c(s2)C2(CC2)Cc2[nH]ncc2-3)nc1` [Cmpd 13, N-(5-fluoropyrimidin-2-yl)-5′,6′-dihydrospiro[cyclopropane-1,4′-[1,3]thiazolo[4,5-e]indazol]-2′-amine] displayed an EC50 of 93 nM.

The same experiment, now with this note: Table II; human mGluR4 HEK-293 cells, Fluo4-AM/FLIPR, stimulated with glutamate EC25.
`Cc1ccnc(Nc2nc3c(s2)COC(C)c2[nH]ncc2-3)n1` (racemic) [Cmpd 18, N-(4-methylpyrimidin-2-yl)-6-methyl-6,7-dihydro-4H-pyrazolo[4′,3′:5,6]oxepino[4,3-d][1,3]-thiazol-2-amine] had an EC50 of 3 nM.

With `c1cnc(Nc2nc3c(s2)Cc2[nH]ncc2-3)nc1` [Cmpd 14, N-(pyrimidin-2-yl)-1,7-dihydropyrazolo[3′,4′:4,5]cyclopenta[1,2-d][1,3]thiazol-5-amine], the midpoint of the response, the EC50, lay at 1420 nM.

On to `Fc1cnc(Nc2nc3c(s2)COCc2[nH]ncc2-3)nc1` [Cmpd 15, N-(5-fluoropyrimidin-2-yl)-6,7-dihydro-4H-pyrazolo[4′,3′:5,6]oxepino[4,3-d][1,3]thiazol-2-amine], for which the midpoint of the response, the EC50, lay at 8 nM.

The molecule `c1cnc(Nc2nc3c(s2)COCc2[nH]ncc2-3)nc1` [Cmpd 16, N-(pyrimidin-2-yl)-6,7-dihydro-4H-pyrazolo[4′,3′:5,6]oxepino[4,3-d][1,3]thiazol-2-amine] returned an EC50 of 7 nM.

`Cc1ccnc(Nc2nc3c(s2)COCc2[nH]ncc2-3)n1` [Cmpd 17, N-(4-methylpyrimidin-2-yl)-6,7-dihydro-4H-pyrazolo[4′,3′:5,6]oxepino[4,3-d][1,3]thiazol-2-amine] gave an EC50 of 10 nM.

The molecule `COc1ccnc(Nc2nc3c(s2)COCc2[nH]ncc2-3)n1` [Cmpd 19, N-(4-methoxypyrimidin-2-yl)-6,7-dihydro-4H-pyrazolo[4′,3′:5,6]oxepino[4,3-d][1,3]thiazol-2-amine] had an EC50 of 28 nM.

Turning to `CCc1ccnc(Nc2nc3c(s2)COC(C)c2[nH]ncc2-3)n1` (stereo not drawn) [Cmpd 20, 6-Methyl-N-[4-(ethyl)pyrimidin-2-yl]-6,7-dihydro-4H-pyrazolo[4′,3′:5,6]oxepino[4,3-d][1,3]thiazol-2-amine], the 50% effective concentration (EC50) was 173 nM.

Turning to `Cc1nc(Nc2nc3c(s2)COC(C)c2[nH]ncc2-3)ncc1F` (stereo not drawn) [Cmpd 21, N-(5-Fluoro-4-methylpyrimidin-2-yl)-6-methyl-6,7-dihydro-4H-pyrazolo[4′,3′:5,6]oxepino[4,3-d][1,3]thiazol-2-amine], the EC50 stood at 27 nM.

In the case of `Cc1ccnc(Nc2nc3c(s2)C(C)OCc2[nH]ncc2-3)n1` (stereo not drawn) [Cmpd 23, 4-methyl-N-(4-methylpyrimidin-2-yl)-6,7-dihydro-4H-pyrazolo[4′,3′:5,6]oxepino[4,3-d][1,3]thiazol-2-amine], the EC50 was found to be 186 nM.

`Cc1ccnc(Nc2nc3c(s2)C(C)OC(C)c2[nH]ncc2-3)n1` (stereo not drawn) [Cmpd 24, 4,6-dimethyl-N-(4-methylpyrimidin-2-yl)-6,7-dihydro-4H-pyrazolo[4′,3′:5,6]oxepino-[4,3-d][1,3]thiazol-2-amine]: the half-maximal effective concentration (EC50) stood at 121 nM.

`c1cnc(Nc2nc3c(s2)CNCc2[nH]ncc2-3)nc1` [Cmpd 27, N-(pyrimidin-2-yl)-4,5,6,7-tetrahydropyrazolo[3,4-c][1,3]thiazolo[4,5-e]azepin-2-amine] registered an EC50 of 994 nM.

In the case of `Cc1ccnc(Nc2nc3c(s2)CN(C)Cc2[nH]ncc2-3)n1` [Cmpd 28, 5-methyl-N-(4-methylpyrimidin-2-yl)-4,5,6,7-tetrahydropyrazolo[3,4-c][1,3]thiazolo[4,5-e]azepin-2-aminee], a half-maximal effect (EC50) was put at 2380 nM.

For the molecule `Fc1cnc(Nc2nc3c(s2)CCCc2[nH]ncc2-3)nc1` [Cmpd 29, N-(5-fluoropyrimidin-2-yl)-4,5,6,7-tetrahydropyrazolo[3′,4′:6,7]cyclohepta[1,2-d][1,3]thiazol-2-amine], the concentration giving a half-maximal response (EC50) worked out at 39 nM.

Molecule `Cc1ccnc(Nc2nc3c(s2)CCC(F)(F)c2[nH]ncc2-3)n1` [Cmpd 34, 6,6-difluoro-N-(4-methylpyrimidin-2-yl)-4,5,6,7-tetrahydropyrazolo[3′,4′:6,7]cyclohepta[1,2-d][1,3]thiazol-2-amine] returned an EC50 of 56 nM.

In the case of `Cc1ccnc(Nc2nc3c(s2)CCC(=O)c2[nH]ncc2-3)n1` [Cmpd 36, 2-[(4-methylpyrimidin-2-yl)amino]-4,7-dihydropyrazolo[3′,4′:6,7]cyclohepta[1,2-d][1,3]thiazol-6(5H)-one], the EC50 turned out to be 1500 nM.

Turning to `Cc1ccnc(Nc2nc3c(s2)CC(F)Cc2[nH]ncc2-3)n1` (stereo not drawn) [Cmpd 40], the EC50 came out at 20 nM.

The same experiment, now with this note: text b34; human mGluR4 HEK-293 cells, glutamate EC25.
The molecule `Cc1nc(Nc2nc3c(s2)COC(C)c2[nH]ncc2-3)ns1` (stereo not drawn) [Cmpd 38] displayed an EC50 of 70 nM.

These data come from patent US20130210807A1, “Tricyclic Compounds as Allosteric Modulators of Metabotropic Glutamate Receptors” (priority 2010, published 2013).
